# Patent publication US4877893A, “Process for the preparation of 2-(O-alkyl)-2-thio-1,3,2-oxathiophospholanes” (priority 1987, dated 1989)
# Columns and labels:
# Experiment in all cases: Fungicidal effect on infected agar nutrient media, colony diameter
# Format in all cases: cell-based
# Sclerotinia sclerotinia = settings: 3rd day after treatment, untreated control 41.7
# Experimental: (§1) Agar nutrient media (Diameter 70 MM, thickness 10 mm) infected by Sclerotonia sclerotinia suspension are treated with 20 EC formulations prepared according to Example 27 and comprising 1, 10, 100 and 1000 ppm, respectively of the active ingredient of the Formula I. The fungicidal effect of the compositions is evaluated on the 3rd day after treatment by measuring the diameter of the Fungi colonies.
# Penicillium cyclopium = settings: 7th day after treatment, untreated 26.5
# Experimental: as §1
# The series of measureents described in Example 35 is carried out except that the agar nutrient media are infected by a Penicillium cyclopium Fungi strain and the test is evaluated on the 7th day after treatment.
# Alternaria tenuis = settings: 5th day after treatment, untreated control 36.8
# Experimental: as §1
# The series of measurements according to Example 35 is carried out except that the agar nutrient media are infected by Alternaria Tenius and evaluation is accomplished on the 5th day after treatment.
SMILES,Diameter of colony (mm) (Sclerotinia sclerotinia; 1 ppm),Diameter of colony (mm) (Sclerotinia sclerotinia; 10 ppm),Diameter of colony (mm) (Sclerotinia sclerotinia; 100 ppm),Diameter of colony (mm) (Sclerotinia sclerotinia; 1000 ppm),Diameter of colony (mm) (Penicillium cyclopium; 1 ppm),Diameter of colony (mm) (Penicillium cyclopium; 10 ppm),Diameter of colony (mm) (Penicillium cyclopium; 100 ppm),Diameter of colony (mm) (Penicillium cyclopium; 1000 ppm),Diameter of colony (mm) (Alternaria tenuis; 1 ppm),Diameter of colony (mm) (Alternaria tenuis; 10 ppm),Diameter of colony (mm) (Alternaria tenuis; 100 ppm),Diameter of colony (mm) (Alternaria tenuis; 1000 ppm)
CC(Br)C(C)OP1(=S)OC(C)C(C)S1 (stereo not drawn) [Compound 44],35.4 mm,28.1 mm,4.0 mm,0 mm,17.9 mm,17.1 mm,5.1 mm,0 mm,33.5 mm,26.2 mm,7.0 mm,0 mm
CC(C)CCOP1(=S)OCCS1 (stereo not drawn) [Compound 67],36.3 mm,29.6 mm,3.6 mm,0 mm,25.1 mm,19.3 mm,7.0 mm,0 mm,35.4 mm,23.8 mm,5.3 mm,0 mm
CCOP1(=S)OCCS1 (stereo not drawn) [Compound 55],33.1 mm,28.2 mm,0 mm,0 mm,21.9 mm,18.1 mm,8.0 mm,0 mm,32.4 mm,23.5 mm,5.2 mm,0 mm
CC(I)COP1(=S)OC(C)C(C)S1 (stereo not drawn) [Compound 42],38.2 mm,31.2 mm,3.5 mm,0 mm,22.2 mm,17.2 mm,7.5 mm,0 mm,32.1 mm,20.4 mm,9.0 mm,0 mm
"S=P1(OCCBr)OCCS1 (stereo not drawn) [Compound 2, 2-(O-2'-bromoethyl)-2-thio-1,3,2-oxathiophospholane]",32.9 mm,29.3 mm,3.1 mm,0 mm,24.6 mm,19.0 mm,8.4 mm,0 mm,30.9 mm,26.1 mm,5.3 mm,0 mm
"CC(Cl)C(C)OP1(=S)OC(C)C(C)S1 (stereo not drawn) [Compound 43, 2-(0-1',2'-dimethyl-2'-chloroethyl)-2-thio-4,5-dimethyl-1,3,2-oxathiophospholane]",37.6 mm,28.2 mm,2.4 mm,0 mm,25.2 mm,18.4 mm,6.3 mm,0 mm,32.4 mm,23.3 mm,6.2 mm,0 mm
"CCCCOP1(=S)OCCS1 (stereo not drawn) [Compound 59, 2-(0-n-butyl)-2-thio-1,3,2-oxathiophospholane]",34.3 mm,28.5 mm,4.0 mm,0 mm,25.0 mm,18.7 mm,7.6 mm,0 mm,34.0 mm,24.1 mm,5.6 mm,0 mm
"CCCCOP1(=S)OC(C)C(C)S1 (stereo not drawn) [Compound 63, 2-(0-n-butyl)-2-thio-4,5-dimethyl-1,3,2-oxathiophospholane]",34.2 mm,29.9 mm,3.1 mm,0 mm,24.8 mm,18.5 mm,8.5 mm,0 mm,35.0 mm,24.2 mm,6.7 mm,0 mm
CC1CSP(=S)(OCCI)O1 (stereo not drawn) [Compound 6],39.3 mm,30.0 mm,1.0 mm,0 mm,21.3 mm,17.3 mm,9.0 mm,0 mm,35.5 mm,21.0 mm,6.0 mm,0 mm
CC(Cl)C(C)OP1(=S)OCCS1 (stereo not drawn) [Compound 28],33.6 mm,27.4 mm,0 mm,0 mm,18.2 mm,14.7 mm,5.7 mm,0 mm,34.2 mm,22.4 mm,4.8 mm,0 mm
S=P1(OCCS)OCCS1 (stereo not drawn) [Compound 56],40.2 mm,31.5 mm,1.2 mm,0 mm,24.6 mm,18.1 mm,8.8 mm,0 mm,32.8 mm,22.1 mm,6.0 mm,0 mm
CC(CI)OP1(=S)OCCS1 (stereo not drawn) [Compound 12],35.9 mm,27.4 mm,3.7 mm,0 mm,25.8 mm,16.1 mm,4.7 mm,0 mm,34.5 mm,22.0 mm,4.8 mm,0 mm
CC(CI)OP1(=S)OC(C)C(C)S1 (stereo not drawn) [Compound 36],37.2 mm,26.9 mm,0 mm,0 mm,23.2 mm,16.8 mm,7.2 mm,0 mm,32.5 mm,20.7 mm,4.3 mm,0 mm
